Measurements taken from the NIST ThermoML archive (doi:10.1016/j.jct.2015.10.026).

Test: mn = molality of the nth substance listed, in mol/kg
Details: 100 kPa, Liquid; for viscosity: Capillary tube (Ostwald / Ubbelohde) method; for electrical conductivity: Direct current cell with electrodes; for mass density: Vibrating tube method

CCCCn1cc[n+](C)c1.NCCS(=O)(=O)[O-] [1-butyl-3-methylimidazolium taurate] + O
Details | electrical conductivity [S/m] | mass density [kg/m3] | viscosity [mPa·s]
293.15 K, m1 = 0.00165 | 0.0072 | – | –
293.15 K, m1 = 0.00227 | 0.0097 | – | –
293.15 K, m1 = 0.00341 | 0.0142 | – | –
293.15 K, m1 = 0.00511 | 0.0205 | 998.36 | –
293.15 K, m1 = 0.00752 | 0.0293 | 998.46 | –
293.15 K, m1 = 0.00917 | – | 998.52 | –
293.15 K, m1 = 0.01078 | 0.0403 | 998.59 | 1.034
293.15 K, m1 = 0.01261 | 0.0464 | 998.67 | 1.038
293.15 K, m1 = 0.01552 | 0.0552 | 998.81 | 1.043
293.15 K, m1 = 0.01938 | 0.0668 | 999 | 1.05
293.15 K, m1 = 0.02239 | 0.0757 | 999.16 | –
293.15 K, m1 = 0.02555 | – | 999.33 | 1.06
293.15 K, m1 = 0.02746 | – | 999.43 | –
293.15 K, m1 = 0.03626 | – | – | 1.074
293.15 K, m1 = 0.05001 | – | – | 1.093
293.15 K, m1 = 0.0693 | – | – | 1.117
293.15 K, m1 = 0.08462 | – | – | 1.133
298.15 K, m1 = 0.00165 | 0.0089 | – | –
298.15 K, m1 = 0.00227 | 0.0121 | – | –
298.15 K, m1 = 0.00341 | 0.0177 | – | –
298.15 K, m1 = 0.00511 | 0.0257 | 997.16 | –
298.15 K, m1 = 0.00752 | 0.0365 | 997.24 | –
298.15 K, m1 = 0.00917 | – | 997.3 | –
298.15 K, m1 = 0.01078 | 0.0498 | 997.36 | 0.925
298.15 K, m1 = 0.01261 | 0.0571 | 997.43 | 0.928
298.15 K, m1 = 0.01552 | 0.0684 | 997.56 | 0.934
298.15 K, m1 = 0.01938 | 0.0824 | 997.74 | 0.94
298.15 K, m1 = 0.02239 | 0.0922 | 997.89 | –
298.15 K, m1 = 0.02555 | – | 998.06 | 0.95
298.15 K, m1 = 0.02746 | – | 998.16 | –
298.15 K, m1 = 0.03626 | – | – | 0.965
298.15 K, m1 = 0.05001 | – | – | 0.981
298.15 K, m1 = 0.0693 | – | – | 1.004
298.15 K, m1 = 0.08462 | – | – | 1.018
303.15 K, m1 = 0.00165 | 0.0104 | – | –
303.15 K, m1 = 0.00227 | 0.0141 | – | –
303.15 K, m1 = 0.00341 | 0.0206 | – | –
303.15 K, m1 = 0.00511 | 0.0299 | 995.73 | –
303.15 K, m1 = 0.00752 | 0.0425 | 995.79 | –
303.15 K, m1 = 0.00917 | – | 995.83 | –
303.15 K, m1 = 0.01078 | 0.0587 | 995.88 | 0.835
303.15 K, m1 = 0.01261 | 0.0675 | 995.94 | 0.838
303.15 K, m1 = 0.01552 | 0.0805 | 996.06 | 0.844
303.15 K, m1 = 0.01938 | 0.0965 | 996.22 | 0.85
303.15 K, m1 = 0.02239 | 0.107 | 996.37 | –
303.15 K, m1 = 0.02555 | – | 996.53 | 0.86
303.15 K, m1 = 0.02746 | – | 996.63 | –
303.15 K, m1 = 0.03626 | – | – | 0.874
303.15 K, m1 = 0.05001 | – | – | 0.89
303.15 K, m1 = 0.0693 | – | – | 0.911
303.15 K, m1 = 0.08462 | – | – | 0.925
308.15 K, m1 = 0.00165 | 0.0119 | – | –
308.15 K, m1 = 0.00227 | 0.0161 | – | –
308.15 K, m1 = 0.00341 | 0.0237 | – | –
308.15 K, m1 = 0.00511 | 0.0344 | 994.08 | –
308.15 K, m1 = 0.00752 | 0.0488 | 994.12 | –
308.15 K, m1 = 0.00917 | – | 994.15 | –
308.15 K, m1 = 0.01078 | 0.067 | 994.19 | 0.76
308.15 K, m1 = 0.01261 | 0.0772 | 994.24 | 0.764
308.15 K, m1 = 0.01552 | 0.092 | 994.34 | 0.77
308.15 K, m1 = 0.01938 | 0.111 | 994.48 | 0.776
308.15 K, m1 = 0.02239 | 0.123 | 994.63 | –
308.15 K, m1 = 0.02555 | – | 994.78 | 0.786
308.15 K, m1 = 0.02746 | – | 994.88 | –
308.15 K, m1 = 0.03626 | – | – | 0.801
308.15 K, m1 = 0.05001 | – | – | 0.817
308.15 K, m1 = 0.0693 | – | – | 0.837
308.15 K, m1 = 0.08462 | – | – | 0.851
313.15 K, m1 = 0.00165 | 0.0135 | – | –
313.15 K, m1 = 0.00227 | 0.0182 | – | –
313.15 K, m1 = 0.00341 | 0.0265 | – | –
313.15 K, m1 = 0.00511 | 0.0385 | 992.21 | –
313.15 K, m1 = 0.00752 | 0.0544 | 992.23 | –
313.15 K, m1 = 0.00917 | – | 992.26 | –
313.15 K, m1 = 0.01078 | 0.0749 | 992.29 | 0.698
313.15 K, m1 = 0.01261 | 0.0858 | 992.34 | 0.702
313.15 K, m1 = 0.01552 | 0.102 | 992.42 | 0.708
313.15 K, m1 = 0.01938 | 0.121 | 992.55 | 0.715
313.15 K, m1 = 0.02239 | 0.134 | 992.67 | –
313.15 K, m1 = 0.02555 | – | 992.8 | 0.725
313.15 K, m1 = 0.02746 | – | 992.88 | –
313.15 K, m1 = 0.03626 | – | – | 0.74
313.15 K, m1 = 0.05001 | – | – | 0.757
313.15 K, m1 = 0.0693 | – | – | 0.779
313.15 K, m1 = 0.08462 | – | – | 0.793
